In experiment [1] the test system is PC3 (prostate) cancer cell line. Nature of the experiment: In vitro cytotoxic activity MTT assay, PC3. It counts as cell-based. As to conditions: Homo sapiens, PC3 (prostate) cells, exposed for 96 hours, read-out: IC50, concentration of compound eliciting a 50% inhibition of cell proliferation. The method, then:
(§1) Compounds 1-16 were screened for their in vitro cytotoxic activity utilizing a 3-(4,5-dimethyl-thiazol-2-yl)-2,5-diphenyltetrazolium bromide (MTT) assay against selected cancer human cell lines consisting of PC3 (prostate), HCT116 (colon), A375 (melanoma), H1299 (lung), MIAPaCa-2 (pancreas), HL60 (leukemia), MCF7 (breast), MDA-MB-231 (breast) (T. Mosmann, J. Immunol. Meth., 1983, 65, 55-63). The cells were cultured at 37° C. in RMPI1640 medium supplemented with 10% fetal bovine serum, 50 IU/mL penicillin, and 50 μg/mL streptomycin in a 5% CO2 incubator. All cells were sub-cultured 3 times/week by trypsinisation. Viable cells were seeded and allowed to adhere for 12 h before a test drug was added in 96-well plates at an initial density of 1.0×10^5 cells/mL. Tumor cell lines were separately exposed to various concentrations of the tested compounds followed by incubation at a temperature of 37° C. during 96 hours inside a medium of fresh RMPI 1640. Cells were subsequently incubated at 37° C. using MTT at 0.5 mg/mL during 4 hours. After removal of supernatant, formazan crystals were dissolved in isopropanol and the optical density was measured at 570 nm. CX-4945 was used as a positive control.

Experiment [2] concerns HL60 (leukemia) cancer cell line. As to the kind of experiment: In vitro cytotoxic activity MTT assay, HL60. The class given is cell-based. As to conditions: Homo sapiens, HL-60; HL60 (leukemia) cells, exposed for 96 hours; read-out: IC50, concentration of compound eliciting a 50% inhibition of cell proliferation. The method, then:
as §1
In general terms: Tetrazolium dyes change colour on reduction, which living cells bring about.

Experiment [3] has as its system H1299 (lung) cancer cell line. As to the kind of experiment: In vitro cytotoxic activity MTT assay, H1299. As to conditions: Homo sapiens, NCI-H1299; H1299 (lung) cells, exposed for 96 hours; read-out: IC50, concentration of compound eliciting a 50% inhibition of cell proliferation. The class given is cell-based. The method, then: as §1
Experiment [4] relates to A375 (melanoma) cancer cell line. As to the kind of experiment: In vitro cytotoxic activity MTT assay, A375. The class given is cell-based. As to conditions: Homo sapiens, A-375; A375 (melanoma) cells, exposed for 96 hours; read-out: IC50, concentration of compound eliciting a 50% inhibition of cell proliferation. The method, then:
as §1

Experiment [5] deals with MCF7 (breast) cancer cell line. As to the kind of experiment: In vitro cytotoxic activity MTT assay, MCF7. As to conditions: Homo sapiens; MCF7 (breast) cells, exposed for 96 hours; read-out: IC50, concentration of compound eliciting a 50% inhibition of cell proliferation. The class given is cell-based. The method, then:
as §1

Experiment [6] concerns the target T1, recombinant human CK2 (holoenzyme) (Homo sapiens, UniProt P68400).
T1 construct: purchased Millipore
As to the kind of experiment: CK2 Kinase Assay (radiometric, [γ-33P] ATP). The class given is biochemical. As to conditions: final ATP concentration 15 μM, 10 min at 30° C., eight concentrations; read-out: protein kinase CK2 inhibition IC50. The method, then:
CK2 Kinase Assay was conducted using the protocol as described in Pierre F. et al; J. Med. Chem. 2011, 54, 635-654. The tested compounds in aqueous solution were added at a volume of 10 μL to a reaction mixture comprising 10 μL of assay dilution buffer (ADB; 20 mM MOPS, pH 7.2, 25 mM P-glycerol phosphate, 5 mM EGTA, 1 mM sodium orthovanadate, and 1 mM dithiothreitol), 10 μL of substrate peptide (RRRDDDSDDD, dissolved in ADB at a concentration of 1 mM), 10 μL of recombinant human CK2 (RROP-holoenzyme, 25 ng dissolved in ADB; Millipore). Reactions were initiated by the addition of 10 μL of ATP solution (90% 75 mMMgCl2, 75 μM ATP (final ATP concentration:15 μM) dissolved in ADB; 10% [γ-33P] ATP (stock 1mCi/100 μL; 3000 Ci/mmol (Perkin-Elmer) and maintained for 10 min at 30° C. The reactions were quenched with 100 μL of 0.75% phosphoric acid and then transferred to and filtered through a phosphor cellulose filter plate (Millipore). After washing each well five times with 0.75% phosphoric acid, the plate was dried under vacuum for 5 min and, following the addition of 15 μL of scintillation fluid to each well, the residual radioactivity was measured using a Wallac luminescence counter. The IC50 values were derived from eight concentrations of test inhibitors.

The subject of experiment [7] is MDA-MB-231 (breast) cancer cell line. Nature of the experiment: In vitro cytotoxic activity MTT assay, MDA-MB-231. As to conditions: Homo sapiens; MDA-MB-231 (breast) cells, exposed for 96 hours; read-out: IC50, concentration of compound eliciting a 50% inhibition of cell proliferation. It counts as cell-based. The method, then:
as §1

Experiment [8] deals with MIAPaCa-2 (pancreas) cancer cell line. As to the kind of experiment: In vitro cytotoxic activity MTT assay, MIAPaCa-2. The class given is cell-based. As to conditions: Homo sapiens, MIA PaCa-2; MIAPaCa-2 (pancreas) cells, exposed for 96 hours; read-out: IC50, concentration of compound eliciting a 50% inhibition of cell proliferation. The method, then:
as §1

The test system of experiment [9] is HCT116 (colon) cancer cell line. Nature of the experiment: In vitro cytotoxic activity MTT assay, HCT116. The class given is cell-based. As to conditions: Homo sapiens, HCT-116; HCT116 (colon) cells, exposed for 96 hours; read-out: IC50, concentration of compound eliciting a 50% inhibition of cell proliferation. The method, then: as §1

T1 sequence (P68400 whole entry): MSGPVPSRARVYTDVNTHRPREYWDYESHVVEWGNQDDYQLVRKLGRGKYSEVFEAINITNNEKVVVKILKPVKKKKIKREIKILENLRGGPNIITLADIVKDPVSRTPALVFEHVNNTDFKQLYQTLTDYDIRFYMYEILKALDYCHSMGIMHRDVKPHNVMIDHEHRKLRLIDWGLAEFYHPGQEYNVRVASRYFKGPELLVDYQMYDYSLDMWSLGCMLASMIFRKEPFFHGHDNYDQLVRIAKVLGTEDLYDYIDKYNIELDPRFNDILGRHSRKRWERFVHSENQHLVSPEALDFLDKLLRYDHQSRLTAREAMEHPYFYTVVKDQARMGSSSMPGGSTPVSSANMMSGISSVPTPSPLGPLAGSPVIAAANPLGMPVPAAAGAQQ
T1 sequence (P67870 whole entry partner): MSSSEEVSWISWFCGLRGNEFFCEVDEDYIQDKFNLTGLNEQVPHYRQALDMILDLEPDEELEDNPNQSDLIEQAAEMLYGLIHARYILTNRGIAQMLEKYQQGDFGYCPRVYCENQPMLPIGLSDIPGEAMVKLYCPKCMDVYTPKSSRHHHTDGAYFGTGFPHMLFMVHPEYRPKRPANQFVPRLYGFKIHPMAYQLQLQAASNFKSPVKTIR

Turning to `Clc1cccc(Nc2c3ccncc3nc3c2nc2cnccn23)c1` [Compound 1, N-(3-chlorophenyl)pyrazino[2′,1′:2,3]imidazo[4,5-b][1,7]naphthyridin-11-amine], the IC50 worked out at 1.9 µM in experiment [1]; 2.8 µM in experiment [2]; 2.9 µM in experiment [3]; 3.2 µM in experiment [4]; 6.3 µM in experiment [5]; 0.092 µM in experiment [6]. For the same compound, the IC50 in experiment [7] stood at 5 µM; in experiment [8], 1.1 µM; in experiment [9] it was 1.4 µM.

Values taken from patent US11999736B1, “Pyrazino[2′,1′:2,3]imidazo[4,5-b][1,7]naphthyridines compounds as CK2 inhibitors” (KING FAISAL UNIVERSITY, priority 2023, dated 2024).
